± gives the expanded uncertainty stated by the source.
Test: xn = mol fraction of the nth substance listed
Conditions: 101 kPa, Liquid; for viscosity: Capillary tube (Ostwald / Ubbelohde) method; for mass density: Vibrating tube method

`CCN(CC)CCO` [(diethylamino)ethanol] + NCCO gave a viscosity (293.15 K, x2 = 0) of 4.848 ± 0.97 mPa·s, a viscosity (293.15 K, x2 = 0.1003) of 6.52 ± 1.3 mPa·s and a viscosity (293.15 K, x2 = 0.2004) of 8.275 ± 1.7 mPa·s. For the same molecule, the viscosity (293.15 K, x2 = 0.2993) was 10.42 ± 2.1 mPa·s, the viscosity (293.15 K, x2 = 0.4003) was 12.32 ± 2.5 mPa·s and the viscosity (293.15 K, x2 = 0.5001) was 13.76 ± 2.8 mPa·s. For the same molecule, the viscosity (293.15 K, x2 = 0.6001) was 15.98 ± 3.2 mPa·s, the viscosity (293.15 K, x2 = 0.7007) was 17.27 ± 3.5 mPa·s and the viscosity (293.15 K, x2 = 0.8001) was 19.77 ± 4 mPa·s. It also gave a viscosity (293.15 K, x2 = 0.9) of 22.75 ± 4.6 mPa·s, a mass density (293.15 K, x2 = 0) of 891.2 ± 10 kg/m3 and a mass density (293.15 K, x2 = 0.1003) of 897.2 ± 10 kg/m3. The mass density (293.15 K, x2 = 0.2004) was 906.9 ± 10 kg/m3, the mass density (293.15 K, x2 = 0.2993) was 920.7 ± 10 kg/m3 and the mass density (293.15 K, x2 = 0.4003) was 931.6 ± 10 kg/m3. For the same molecule, the mass density (293.15 K, x2 = 0.5001) was 941 ± 10 kg/m3, the mass density (293.15 K, x2 = 0.6001) was 952.2 ± 10 kg/m3 and the mass density (293.15 K, x2 = 0.7007) was 965.8 ± 10 kg/m3. It also gave a mass density (293.15 K, x2 = 0.8001) of 981.8 ± 10 kg/m3, a mass density (293.15 K, x2 = 0.9) of 999.8 ± 10 kg/m3 and a viscosity (303.15 K, x2 = 0) of 3.41 ± 0.68 mPa·s. For the same molecule, the viscosity (303.15 K, x2 = 0.1003) was 3.543 ± 0.71 mPa·s, the viscosity (303.15 K, x2 = 0.2004) was 3.892 ± 0.78 mPa·s and the viscosity (303.15 K, x2 = 0.2993) was 4.495 ± 0.9 mPa·s. It also gave a viscosity (303.15 K, x2 = 0.4003) of 5.526 ± 1.1 mPa·s, a viscosity (303.15 K, x2 = 0.5001) of 6.483 ± 1.3 mPa·s and a viscosity (303.15 K, x2 = 0.6001) of 7.382 ± 1.5 mPa·s. It also gave a viscosity (303.15 K, x2 = 0.7007) of 8.567 ± 1.7 mPa·s, a viscosity (303.15 K, x2 = 0.8001) of 10.57 ± 2.1 mPa·s and a viscosity (303.15 K, x2 = 0.9) of 13.44 ± 2.7 mPa·s. For the same molecule, the mass density (303.15 K, x2 = 0) was 874.4 ± 10 kg/m3, the mass density (303.15 K, x2 = 0.1003) was 881.4 ± 10 kg/m3 and the mass density (303.15 K, x2 = 0.2004) was 892.2 ± 10 kg/m3. The mass density (303.15 K, x2 = 0.2993) was 906.2 ± 10 kg/m3, the mass density (303.15 K, x2 = 0.4003) was 918 ± 10 kg/m3 and the mass density (303.15 K, x2 = 0.5001) was 929.9 ± 10 kg/m3. The mass density (303.15 K, x2 = 0.6001) was 942.1 ± 10 kg/m3, the mass density (303.15 K, x2 = 0.7007) was 954.2 ± 10 kg/m3 and the mass density (303.15 K, x2 = 0.8001) was 971.6 ± 10 kg/m3. For the same molecule, the mass density (303.15 K, x2 = 0.9) was 991.5 ± 10 kg/m3, the viscosity (313.15 K, x2 = 0) was 2.466 ± 0.49 mPa·s and the viscosity (313.15 K, x2 = 0.1003) was 2.619 ± 0.52 mPa·s. For the same molecule, the viscosity (313.15 K, x2 = 0.2004) was 2.982 ± 0.6 mPa·s, the viscosity (313.15 K, x2 = 0.2993) was 3.501 ± 0.7 mPa·s and the viscosity (313.15 K, x2 = 0.4003) was 4.04 ± 0.81 mPa·s. For the same molecule, the viscosity (313.15 K, x2 = 0.5001) was 4.629 ± 0.93 mPa·s, the viscosity (313.15 K, x2 = 0.6001) was 5.072 ± 1 mPa·s and the viscosity (313.15 K, x2 = 0.7007) was 5.754 ± 1.2 mPa·s. For the same molecule, the viscosity (313.15 K, x2 = 0.8001) was 7.21 ± 1.4 mPa·s, the viscosity (313.15 K, x2 = 0.9) was 8.826 ± 1.8 mPa·s and the mass density (313.15 K, x2 = 0) was 865.4 ± 10 kg/m3. For the same molecule, the mass density (313.15 K, x2 = 0.1003) was 869.8 ± 10 kg/m3, the mass density (313.15 K, x2 = 0.2004) was 881.6 ± 10 kg/m3 and the mass density (313.15 K, x2 = 0.2993) was 897.8 ± 10 kg/m3. The mass density (313.15 K, x2 = 0.4003) was 910.5 ± 10 kg/m3, the mass density (313.15 K, x2 = 0.5001) was 920.1 ± 10 kg/m3 and the mass density (313.15 K, x2 = 0.6001) was 935 ± 10 kg/m3. It also gave a mass density (313.15 K, x2 = 0.7007) of 944.6 ± 10 kg/m3, a mass density (313.15 K, x2 = 0.8001) of 963 ± 10 kg/m3 and a mass density (313.15 K, x2 = 0.9) of 982.7 ± 10 kg/m3. For the same molecule, the viscosity (323.15 K, x2 = 0) was 1.855 ± 0.37 mPa·s, the viscosity (323.15 K, x2 = 0.1003) was 1.952 ± 0.39 mPa·s and the viscosity (323.15 K, x2 = 0.2004) was 2.149 ± 0.43 mPa·s. It also gave a viscosity (323.15 K, x2 = 0.2993) of 2.658 ± 0.53 mPa·s, a viscosity (323.15 K, x2 = 0.4003) of 2.925 ± 0.59 mPa·s and a viscosity (323.15 K, x2 = 0.5001) of 3.314 ± 0.66 mPa·s. The viscosity (323.15 K, x2 = 0.6001) was 3.651 ± 0.73 mPa·s, the viscosity (323.15 K, x2 = 0.7007) was 4.046 ± 0.81 mPa·s and the viscosity (323.15 K, x2 = 0.8001) was 4.954 ± 0.99 mPa·s. It also gave a viscosity (323.15 K, x2 = 0.9) of 6.018 ± 1.2 mPa·s, a mass density (323.15 K, x2 = 0) of 856.4 ± 10 kg/m3 and a mass density (323.15 K, x2 = 0.1003) of 859.4 ± 10 kg/m3. For the same molecule, the mass density (323.15 K, x2 = 0.2004) was 871.1 ± 10 kg/m3, the mass density (323.15 K, x2 = 0.2993) was 887.6 ± 10 kg/m3 and the mass density (323.15 K, x2 = 0.4003) was 901.2 ± 10 kg/m3. The mass density (323.15 K, x2 = 0.5001) was 910.2 ± 10 kg/m3, the mass density (323.15 K, x2 = 0.6001) was 926.9 ± 10 kg/m3 and the mass density (323.15 K, x2 = 0.7007) was 935.9 ± 10 kg/m3. For the same molecule, the mass density (323.15 K, x2 = 0.8001) was 954.3 ± 10 kg/m3, the mass density (323.15 K, x2 = 0.9) was 974.3 ± 10 kg/m3 and the viscosity (333.15 K, x2 = 0) was 1.431 ± 0.29 mPa·s. For the same molecule, the viscosity (333.15 K, x2 = 0.1003) was 1.568 ± 0.31 mPa·s, the viscosity (333.15 K, x2 = 0.2004) was 1.746 ± 0.35 mPa·s and the viscosity (333.15 K, x2 = 0.2993) was 2.107 ± 0.42 mPa·s. It also gave a viscosity (333.15 K, x2 = 0.4003) of 2.426 ± 0.49 mPa·s, a viscosity (333.15 K, x2 = 0.5001) of 2.767 ± 0.55 mPa·s and a viscosity (333.15 K, x2 = 0.6001) of 3.007 ± 0.6 mPa·s. The viscosity (333.15 K, x2 = 0.7007) was 3.273 ± 0.66 mPa·s, the viscosity (333.15 K, x2 = 0.8001) was 3.651 ± 0.73 mPa·s and the viscosity (333.15 K, x2 = 0.9) was 4.413 ± 0.88 mPa·s. For the same molecule, the mass density (333.15 K, x2 = 0) was 845.6 ± 10 kg/m3, the mass density (333.15 K, x2 = 0.1003) was 849.2 ± 10 kg/m3 and the mass density (333.15 K, x2 = 0.2004) was 861 ± 10 kg/m3. The mass density (333.15 K, x2 = 0.2993) was 879.7 ± 10 kg/m3, the mass density (333.15 K, x2 = 0.4003) was 891.8 ± 10 kg/m3 and the mass density (333.15 K, x2 = 0.5001) was 902.3 ± 10 kg/m3. For the same molecule, the mass density (333.15 K, x2 = 0.6001) was 915.8 ± 10 kg/m3, the mass density (333.15 K, x2 = 0.7007) was 927.9 ± 10 kg/m3 and the mass density (333.15 K, x2 = 0.8001) was 946.2 ± 10 kg/m3. For the same molecule, the mass density (333.15 K, x2 = 0.9) was 965.5 ± 10 kg/m3.

— the NIST ThermoML archive (doi:10.1016/j.jct.2019.06.032)
